A melting point compilation (Tetko et al.; mined from patent text by program, amines drawn as free bases though some values may be those of a salt)

Row | SMILES | melting point
1 | CNC(=O)N1CCC(C(c2ccc(F)cc2)N(CCc2ccccc2)C(=O)NC)CC1 (centres undefined) | 186 to 188 °C
2 | Ic1ccc(-c2ccc(I)s2)s1 | 164 °C
3 | O=C(NCc1ccc(Cl)cc1)c1cnc2c(F)cc(I)cc2c1O | 268 to 270 °C
4 | CCCCCCCCCCCCOC(C)c1ccc(-c2ccc(C(=O)O)cc2)cc1 (single isomer, unassigned; (+)) | 70.5 °C
5 | CCCCS(=O)(=O)Nc1ccc(Oc2cccc3cccnc23)cc1 | 162 °C
6 | CC(Oc1c(Cl)cccc1Cl)C(N)=O (single isomer, unassigned; (-)) | 192 to 193 °C
7 | c1coc(C2=Nc3ccccc3N3CCc4cccc2c43)c1 | 144 to 146 °C
8 | Cc1ccc(C(=O)Nc2ccc(N3CCNCC3)cc2)c(-c2ccc(C(C)C)cc2)c1 | 131 to 133 °C
9 | CCN1CC(=O)N(c2c(C(C)C)cccc2C(C)C)C1=S | 159 to 161 °C
10 | O=C(Cc1ccc(C(F)(F)F)cn1)c1ccc(Cl)cc1 | 114 to 116 °C
11 | CC(Oc1c(-c2ccc(S(C)(=O)=O)cc2)cnn(CC(F)(F)F)c1=O)c1ccc(F)cc1 (centres undefined) | 133 to 135 °C
12 | COC(CN(C)C(=O)Nc1ccc(Oc2cccc(C(F)(F)F)c2)cc1)OC | 86 to 88 °C
13 | CCOC(=O)c1c(Nc2ccncc2)c2ccc(Cl)cc2n1C | 154 to 155 °C
14 | CN(C)C(=O)C(C)(C)c1ccccc1 | 57 to 59 °C
15 | O=S(=O)(Nc1cccc(CCOCc2noc(-c3ccc(C(F)(F)F)cc3)n2)c1)C(F)(F)F | 83 to 86 °C
16 | O=C(c1ccccc1)c1cccnc1-c1nc(NCc2ccc(Cl)cc2)c2ccccc2n1 | 147 to 149 °C
17 | COc1ccc(-c2coc3ccc(-c4nnc(SCc5ccc(OC)c(F)c5)o4)cc23)cc1 | 162 to 163 °C
18 | CC(C)(C)OC(=O)c1ncn2c1[C@@H]1CCCN1C(=O)c1cc(Cl)ccc1-2 | 157 to 158 °C
19 | CC(=O)NC(=O)OC[C@]1(C)S[C@@H]2[C@H](NC(=O)Cc3ccccc3)C(=O)N2[C@H]1C(=O)OCc1ccc([N+](=O)[O-])cc1 | 83 to 85 °C
20 | CC(C)n1nc(-c2sc(NC(=O)c3ccc(CCl)cc3)nc2-c2ccccc2)ccc1=O | > 250 °C
21 | CCOC(=O)c1[nH]ccc1OCC | 81 to 83 °C
22 | CC(=O)SCC(CSC(C)=O)C(=O)N(CC(=O)O)C1Cc2ccccc2C1 | 114 to 115 °C
23 | CCOC(=O)Cn1c(=O)c2cc(Cl)ccc2n(Cc2ccc(Br)cc2F)c1=O | 145 to 146 °C
24 | CC(=O)C(=Cc1ccc(C#N)cc1)C(=O)C1CC1 | 83 to 85 °C
25 | CCCCCCCCCCC#CC#CCCCCCCCCC(=O)OC(=O)CCCCCCCCC#CC#CCCCCCCCCCC | 58 to 59.5 °C

Row | SMILES | melting point
26 | Clc1ccc(Cn2cc(C=Cc3cccnc3)c3cc(OCc4ccc5ccccc5n4)ccc32)cc1 | 169 to 171 °C
27 | Cc1nc(-c2ccc(F)cc2)c(COc2ccc(-c3nc4cc(C(=O)O)ccc4n3C3CCCCC3)cc2)s1 | 196 to 198 °C
28 | NC(=O)c1nc(-c2cnc3nc[nH]c3c2)nc2c1[nH]c(=O)n2-c1ccccc1C(F)(F)F | 320 °C
29 | CCOC(=O)c1c(S(C)=O)n(C2CC2)c2cc(F)c(F)cc2c1=O (centres undefined) | 207 °C
30 | CC#CCC(CC#CC)(C(=O)O)S(=O)(=O)c1ccc(OC)cc1 | 141 to 143 °C
31 | NS(=O)(=O)Oc1ccc(C(c2ccc(OS(N)(=O)=O)c(Br)c2)n2cncn2)cc1Br | 98 to 102 °C
32 | COc1ccc(C2CC(c3ccc(O)cc3)C2)cc1 (centres undefined) | 96 to 110 °C
33 | Cc1nc(N2CCN(CC3CC3)C2=O)sc1C(=O)NCc1ccncc1 | > 200 °C
34 | CC(C)(C)NS(=O)(=O)c1c(CO)nsc1OCC(F)(F)F | 113 to 116 °C
35 | CCCCN(CCCOc1ccc2ccccc2c1)c1ccc(OC)cc1 | 127 °C
36 | CC(C)(C)OC(=O)NC[C@H]1CN(c2ccc3c(c2)CCCc2cn[nH]c2-3)C(=O)O1 | 85 to 100 °C
37 | N#Cc1cc([N+](=O)[O-])ccc1OC12CC3CC(CC(C3)C1)C2 | 187 to 189 °C
38 | CCOC(=O)CCCCn1cnc2ccncc21 | 45 to 47 °C
39 | CCCCCCCN1C(=O)C2CC(c3ccc(N)cc3)(C2)C1=O | 69 to 71 °C
40 | CC(=O)O[C@@H]1[C@H](OC(C)=O)[C@@H](C)O[C@H]1n1c(Br)nc2c(Cl)c(Cl)c(Cl)cc21 | 160 to 162 °C
41 | Cn1cc(CCl)c(=O)c2ccc(F)cc21 | 169 to 171 °C
42 | O=c1[nH]c2cc(Cl)cc(OCCNCc3ccccc3)c2[nH]1 | 192 to 193 °C
43 | Cc1cccc([C@@H]2C[C@H]3C=C(c4c[nH]c(-c5ccc(F)cc5)c4-c4ccncc4)CCN3C2)c1 | 204 to 206 °C
44 | Nc1ccc(Sc2cc(F)cc(F)c2)c(Cl)c1 | 156 to 158 °C
45 | CC(=Cc1ccccc1)c1ncccc1C(N)=O | 150 to 155 °C
46 | CN1Cc2c(ccc(F)c2Cl)-n2c(c(C#CC(C)(C)O)[nH]c2=O)C1 | 208 to 209 °C
47 | COc1cc(Br)nc(C(=O)O)c1OCc1ccccc1 | 134 to 135 °C
48 | CC(C(=O)O)c1ccc(CC(C)C(C)O)cc1 (centres undefined) | 85 to 88 °C
49 | C[C@@H](NCc1ccc(O)cc1)c1cccc2ccccc12 | 132 to 133 °C
50 | CC1(C)Oc2ccc(C#N)cc2[C@@H](NC(=O)Nc2ccc3c(c2)CNC3)[C@@H]1O | 215 to 217 °C

Row | SMILES | melting point
51 | COc1ccc2ccccc2c1CC(NC(C)=O)C(=O)O (centres undefined) | 201 °C
52 | O=C1NCc2cc(C3CC3)sc21 | 109 to 110 °C
53 | CCOC(=O)c1cn2c3c(c(C#N)ccc3c1=O)CCC2C (centres undefined) | 249 to 251 °C
54 | Clc1ccc(Sc2ncccn2)cc1 | 68 to 70 °C
55 | Cc1cccc(CCC(=O)c2ccccc2)c1NC(=O)CC1c2ccccc2Oc2ccccc21 | 175 to 176 °C
56 | O=C(Nc1cccnc1)N1CCc2cc(Cl)c(Cl)cc21 | 236 to 238 °C
57 | CCCc1c(OCCCOc2ccc(C#N)cc2Cl)ccc(C(C)=O)c1O | 96 to 97 °C
58 | CC(C)c1cccc(C(C)C)c1NC(=O)C1CCCC(CCCCCOc2ccccc2)(c2ccccc2)C1=O (centres undefined) | 150 to 153 °C
59 | Cc1ccc(NC(=O)N[C@]2(C3CCCCC3)N=Cc3ccccc3N(C)C2=O)cc1N(C)c1nnn[nH]1 | 223 to 225 °C
60 | Cc1cc(Br)cnc1NCCCNC1=NS(=O)N=C1NCc1ccncn1 (centres undefined) | 171 to 172 °C
61 | Cc1nc(N)c2nc(CO)n(NCc3cccnc3)c2c1C | 258 to 260 °C
62 | CC(C)(CO)NC(=O)c1cc(F)c(F)cc1F | 114 to 116 °C
63 | CCCCCCCc1ccc(C2CC(CCCCCC)C(=O)O2)cc1 (centres undefined) | 45.9 to 48 °C
64 | COC(=O)CCc1cc(O)cc2cc(-c3ccc(O)cc3)oc12 | 167 to 170 °C
65 | O=C(O)/C=C/c1cc(OCC2CC2)nn1Cc1ccc(C(F)(F)F)cc1Cl | 195 to 196 °C
66 | O=C(O)Cn1c(=O)c2ccccc2n(CCCN2CCC(OC(c3ccccc3)c3ccccc3)CC2)c1=O | 170 to 172 °C
67 | CCCCOC(=O)c1cc2cccc(O)c2[nH]1 | 150 to 151 °C
68 | O=C1N(N2CCOCC2)c2ccccc2C1(Cc1ccncc1)Cc1ccncc1 | 200 to 203 °C
69 | CCCCCc1c(C(C)C)nc(C(C)C)c(CN(C)C)c1-c1ccc(F)cc1 | 69 to 71 °C
70 | CC(C)NS(=O)(=O)Cc1ccc(N)cc1 | 105 to 107 °C
71 | CCOC(=O)CCC(C)C1CC=C2C3=C(CCC21C)C1(C)CCC(O)C(C)(C)C1CC3 (centres undefined) | 122 to 124 °C
72 | NNC(=O)c1ccc2ncccc2c1 | 193 to 194 °C
73 | Cc1cn(C2CCN(c3c(F)cc4c(=O)c(C(=O)O)cn5c4c3OCC5C)C2)nn1 (single isomer, unassigned; (-)) | 241 to 242 °C
74 | CS(=O)(=O)c1cc(C(=O)O)ccc1Oc1ccc([N+](=O)[O-])cc1 | 140 to 150 °C
75 | CC(C)N(Cc1ccc(Cl)c(Cl)c1)S(=O)(=O)c1cc2ccccc2s1 | 133 to 135 °C

Row | SMILES | melting point
76 | CCC1(CCCCCl)C(=O)Nc2cc(F)ccc21 (centres undefined) | 95 to 97 °C
77 | CC(C)C1CCN(Cc2ccc(COc3cccc4c3CN(C3CCC(=O)NC3=O)C4=O)cc2)CC1 (centres undefined) | 124 to 126 °C
78 | CS(=O)(=O)c1ccc(-c2cnn(-c3cccc(Cl)c3)c(=O)c2COC(=O)c2ccccc2)cc1 | 50 to 70 °C
79 | O=S(=O)(NCc1ccccc1)c1cc(F)c2cccnc2c1O | 186 °C
80 | Clc1ccc(C2C3=C(CCS3)NC3=C2SCC3)cc1Cl | > 260 °C
81 | c1ccc(-c2cncs2)cc1 | 45 to 46 °C
82 | COC(=O)c1ccccc1S(=O)(=O)NC(=O)Nc1nc(N(C)C)c2nc(C)c(C)nc2n1 | 196 °C
83 | COC(=O)c1cccc2c1[nH]c1c3cc(Br)ccc3oc21 | 204 to 205 °C
84 | CCOC(=O)C1=C(C)NC(COC)=C(C(=O)OCC)C1c1ccc(S(C)(=O)=O)cc1 (centres undefined) | 156 to 158 °C
85 | COc1c(F)c(F)c(C(=O)c2ccc(Br)cc2)c(F)c1F | 80 to 82 °C
86 | CCOc1ccc(-c2ccc(Br)cc2)cc1 | 139 °C
87 | CCS[C@@H]1c2ccn3c(C)c(C)nc3c2N[C@H](c2ccccc2)[C@H]1O | 220 to 223 °C
88 | O=C(O)CN1C(=O)C(=Cc2ccc(OCc3cccc(C(F)(F)F)c3)c(OCc3ccccc3)c2)SC1=S | 187 to 194 °C
89 | CNC(=O)ON=Cc1nn(-c2c(Cl)cc(C(F)(F)F)cc2Cl)c(N)c1S(C)=O (centres undefined) | 146 to 147 °C
90 | Cc1ccccc1CC(=O)c1cc(O)c(O)c([N+](=O)[O-])c1 | 128 to 129 °C
91 | CCCCCCCCCCCCCCCCCCOc1cc2ccccc2cc1O | 60 to 62 °C
92 | Nc1ccccc1SC(F)(F)F | 30 to 31 °C
93 | CCCC/C(=C\C(=O)O)c1cc(OC)c(O)c2c(CC)cccc12 | 139 to 140 °C
94 | Oc1ccc([C@H]2CC[C@H](CCC3OCCO3)CC2)cc1 | 154 °C
95 | C=C(C(=O)c1ccc(C=CC(=O)O)cc1)c1c(F)c(F)c(F)c(F)c1F | 214 to 217 °C
96 | Cc1cc(Oc2ccc(C(=O)O)cc2)ccc1[N+](=O)[O-] | 187 to 190 °C
97 | CCOC(=O)c1c(C)nc(NN)c2nnn(CC)c12 | 75 to 78 °C
98 | Brc1ccc2cc(OCc3ccc4ccccc4n3)ccc2c1 | 135 to 137 °C
99 | CCN1CCN(Cc2nc3sc(Br)cc3c(=O)n2-c2ccccc2Cl)CC1 | 155 to 158 °C
